From article PMC6462414 (Nature, 2018)
≈ marks a conversion by molar mass, not a printed value. Read-outs that look alike come from different tables or passages of the source.

How the values were obtained:
[1] = tested on: S. aureus MW2; format: cell-based, Staphylococcus aureus; conditions: for retinoid-resistant mutants by plating: 10^10 CFU MW2 plated on agar with 2.5×, 5× or 10× MIC
[2] = tested on: clinical S. aureus strains; assay: Activity against panel of clinical S. aureus strains; format: cell-based, Staphylococcus aureus
[3] = tested on: MRSA MW2 biofilms; assay: Persisters in MRSA biofilms; format: cell-based, Staphylococcus aureus
[4] = tested on: exponential-phase S. aureus MW2 cells; assay: SYTOX Green membrane permeabilization, exponential-phase MW2; format: cell-based, Staphylococcus aureus
[5] = tested on: S. aureus MW2 persisters; assay: SYTOX Green membrane permeabilization, MW2 persisters; conditions: SYTOX Green uptake
[6] = tested on: Enterococcus faecium strains; assay: Activity against Enterococcus faecium strains; format: cell-based
[7] = tested on: normal human primary hepatocytes; assay: Cytotoxicity, human primary hepatocytes; format: cell-based; conditions: 24 h
[8] = tested on: S. aureus MW2 persisters; assay: Viability of MRSA MW2 persisters; format: cell-based, Staphylococcus aureus; conditions: for eradication of MRSA persisters: at 8 μg ml^−1; for killing of MRSA persister cells: stationary-phase MW2, 4 h
[9] = tested on: MRSA-MW2-infected C. elegans; assay: C. elegans-MRSA killing assay; format: in vivo, Caenorhabditis elegans; conditions: for C. elegans protected against MW2-induced death: at concentrations above in vitro MICs
[10] = Giant unilamellar vesicle integrity; conditions: DOPC:DOPG 7:3
[11] = tested on: Exponential-phase S. aureus MW2; assay: Cell lysis; format: cell-based, Staphylococcus aureus; conditions: 10× MIC, 4 h, OD600
[12] = tested on: persisters formed by clinical isolates including VRS1; assay: Viability of persisters of clinical S. aureus isolates; format: cell-based, Staphylococcus aureus; conditions: 8–10× MIC; including multi-drug resistant VRS1
[13] = tested on: human erythrocytes; assay: Haemolytic activity; format: cell-based; conditions: 2% human erythrocytes, 1 h
[14] = tested on: MRSA strain MW2; assay: MIC / growth inhibition of MRSA strain MW2; format: cell-based, Staphylococcus aureus; conditions: for minimum inhibitory concentration (MIC): MRSA strain MW2
[15] = tested on: Exponential-phase MRSA cells (strain MW2); assay: Killing kinetics, exponential-phase MRSA MW2; format: cell-based, Staphylococcus aureus; conditions: 10× MIC, level of detection 2 × 10^2 CFU ml^−1
[16] = tested on: Gram-negative species; assay: Activity against Gram-negative species; format: cell-based
[17] = tested on: S. aureus MW2; assay: Transmission electron microscopy of retinoid-treated cells; format: cell-based, Staphylococcus aureus; conditions: 10× MIC
[18] = tested on: MW2-infected neutropenic mice; assay: Deep-seated mouse thigh MRSA infection model; format: in vivo; conditions: 20 mg kg^−1 i.p. alone or in combination with gentamicin 30 mg kg^−1 s.c.
[19] = tested on: MRSA growing and persister cells; assay: Synergism with gentamicin; format: cell-based, Staphylococcus aureus
[20] = tested on: S. aureus MW2 persisters; conditions: not told
[21] = cited from earlier work
[22] = Hepatic and renal toxicity in mice; format: in vivo, mouse; conditions: every 12 h for 3 days, i.p.; analogue 2 10–80 mg kg^−1, vancomycin 25 mg kg^−1; P > 0.7
[23] = 100 days serial passage in sub-MIC CD437

Molecule: O=C(O)c1ccc2cc(-c3ccc(O)c(C45CC6CC(CC(C6)C4)C5)c3)ccc2c1 [CD437]
- retinoid-resistant mutants by plating [1]: unable to obtain retinoid-resistant mutants
- increase in resistance after serial passage [1, 23]: twofold
- activity against panel of clinical S. aureus strains [2]: potent activity
- persisters in MRSA biofilms killed ([3]; 16× MIC): around 90%
- persisters in MRSA biofilms killed ([3]; 32× MIC): ~100%
- membrane permeabilization (SYTOX Green uptake) ([4]; exponential-phase MW2): induced membrane permeabilization
- permeabilization of MRSA-persister membranes [5]: induced rapid permeabilization
- activity against Enterococcus faecium strains [6]: potent activity
- median lethal concentration (LC50) [7]: ≥ 20 µg/mL
- eradication of MRSA persisters [8]: completely eradicated MRSA persisters
- killing of MRSA persister cells [8]: killed MRSA-persister cells
- C. elegans protected against MW2-induced death [9]: 100%
- integrity of giant unilamellar vesicles [10]: disrupted the integrity
- direct lysis of bacterial cells [11]: did not lyse bacterial cells directly
- time to complete eradication of persisters of 13 clinical isolates [12]: 1 to 4 h
- median haemolytic concentration (HC50) [13]: greater than 32 μg ml^−1
- minimum inhibitory concentration (MIC) [14]: 1 µg/mL (≈ 2.51 µM)
- levels of MW2 after two hours [15]: below the limit of detection
- activity against Gram-negative species [16]: not against Gram-negative species
- formation of mesosome-like structures [17]: caused the formation of mesosome-like structures
- efficacy in thigh infection model [18]: exhibited efficacy
- synergism with gentamicin [19]: significant synergism

Molecule: O=C(O)c1ccc(-c2ccc3cc(O)c(C45CC6CC(CC(C6)C4)C5)cc3c2)cc1 [CD1530]
- retinoid-resistant mutants by plating [1]: unable to obtain retinoid-resistant mutants
- increase in resistance after serial passage [1, 23]: twofold
- activity against panel of clinical S. aureus strains [2]: potent activity
- persisters in MRSA biofilms killed ([3]; 16× MIC): around 90%
- persisters in MRSA biofilms killed ([3]; 32× MIC): ~100%
- membrane permeabilization (SYTOX Green uptake) [4]: induced membrane permeabilization
- activity against Enterococcus faecium strains [6]: potent activity
- median lethal concentration (LC50) [7]: ≥ 20 µg/mL
- eradication of MRSA persisters [8]: completely eradicated MRSA persisters
- killing of MRSA persister cells [8]: killed MRSA-persister cells
- C. elegans protected against MW2-induced death [9]: 100%
- integrity of giant unilamellar vesicles [10]: disrupted the integrity
- direct lysis of bacterial cells [11]: did not lyse bacterial cells directly
- time to complete eradication of persisters of 13 clinical isolates [12]: 1 to 4 h
- median haemolytic concentration (HC50) [13]: greater than 32 μg ml^−1
- minimum inhibitory concentration (MIC) [14]: 1 µg/mL (≈ 2.51 µM)
- levels of MW2 after two hours [15]: below the limit of detection
- permeabilization of MRSA-persister membranes [20]: induced rapid permeabilization
- activity against Gram-negative species [16]: not against Gram-negative species
- formation of mesosome-like structures [17]: caused the formation of mesosome-like structures
- synergism with gentamicin [19]: significant synergism

Molecule: COc1ccc(-c2ccc3cc(C(=O)O)ccc3c2)cc1C12CC3CC(CC(C3)C1)C2 [adapalene]
- activity against MRSA ([14]; MRSA MW2): ineffective against MRSA

Molecule: O=C(O)/C=C/c1ccc(-c2ccc(O)c(C34CC5CC(CC(C5)C3)C4)c2)cc1 [adarotene]
- retinoid-resistant mutants by plating [1]: unable to obtain retinoid-resistant mutants
- increase in resistance after serial passage [1, 23]: twofold
- membrane permeabilization (SYTOX Green uptake) ([4]; exponential-phase MW2): induced membrane permeabilization
- killing of MRSA persister cells [8]: inactive against persister cells
- MRSA-induced death of C. elegans ([9]; in vivo): prevented the MRSA-induced death of C. elegans
- integrity of giant unilamellar vesicles [10]: disrupted the integrity
- median haemolytic concentration (HC50) [13]: greater than 32 μg ml^−1
- MIC ([14]; Staphylococcus aureus, MRSA, read-out: minimum inhibitory concentration (MIC)): 2 µg/mL (≈ 5.34 µM)
- excretion [21]: excreted rapidly

Molecule: O=C(O)c1cn(C2CC2)c2cc(N3CCNCC3)c(F)cc2c1=O [ciprofloxacin]
- increase in resistance after serial passage ([1]; serial passage in ciprofloxacin for 100 days): 256 fold

Molecule: CN[C@H](CC(C)C)C(=O)N[C@H]1C(=O)N[C@@H](CC(N)=O)C(=O)N[C@H]2C(=O)N[C@H]3C(=O)N[C@H](C(=O)N[C@H](C(=O)O)c4cc(O)cc(O)c4-c4cc3ccc4O)[C@H](O)c3ccc(c(Cl)c3)Oc3cc2cc(c3O[C@@H]2O[C@H](CO)[C@@H](O)[C@H](O)[C@H]2O[C@H]2C[C@](C)(N)[C@H](O)[C@H](C)O2)Oc2ccc(cc2Cl)[C@H]1O [vancomycin]
- ALT and BUN versus control [22]: lack of significant differences

Molecule: daptomycin
- increase in resistance after serial passage ([1]; serial passage in daptomycin for 15 days): tenfold
